Data taken from paper PMC6662757, “A small molecule inhibitor of ER-to-cytosol protein dislocation exhibits anti-dengue and anti-Zika virus activity” (Scientific Reports, 2019).

What was measured:
OS9 = biological target: T1, OS9 (Homo sapiens, UniProt Q13438); test: cellular thermal shift assay (CETSA), immunoblot; assay type: cell-based; details: HeLa cells treated with 10 µM CP26, 37 °C, 2 h, then lysed in 0.4% NP-40 and heated 3 min; direct target within the Hrd1 complex not defined
T1 construct: endogenous protein in HeLa cells, heated in NP-40 lysate; component of the Hrd1 complex
T1 sequence (Q13438 26-667): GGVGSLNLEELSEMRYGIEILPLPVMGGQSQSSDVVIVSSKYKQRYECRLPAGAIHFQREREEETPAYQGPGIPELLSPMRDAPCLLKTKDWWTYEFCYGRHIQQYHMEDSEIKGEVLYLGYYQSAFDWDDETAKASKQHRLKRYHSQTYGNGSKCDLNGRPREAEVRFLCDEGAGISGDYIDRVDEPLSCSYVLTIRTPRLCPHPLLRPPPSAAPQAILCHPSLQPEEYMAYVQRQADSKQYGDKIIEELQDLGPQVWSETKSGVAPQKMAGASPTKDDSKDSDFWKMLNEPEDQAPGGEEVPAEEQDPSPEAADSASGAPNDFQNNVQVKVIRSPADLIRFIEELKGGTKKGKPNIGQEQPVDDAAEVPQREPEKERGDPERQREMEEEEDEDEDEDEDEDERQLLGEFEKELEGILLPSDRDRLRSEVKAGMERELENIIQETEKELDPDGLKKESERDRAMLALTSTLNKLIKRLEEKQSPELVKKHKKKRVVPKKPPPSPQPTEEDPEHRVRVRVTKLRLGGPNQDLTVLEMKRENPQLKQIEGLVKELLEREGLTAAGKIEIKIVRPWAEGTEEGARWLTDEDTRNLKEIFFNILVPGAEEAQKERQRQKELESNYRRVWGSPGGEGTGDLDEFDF

Derlin2 = biological target: T2, Derlin2 (Homo sapiens, UniProt Q9GZP9); test: cellular thermal shift assay (CETSA), immunoblot; assay type: cell-based; details: HeLa cells treated with 10 µM CP26, 37 °C, 2 h, then lysed in 0.4% NP-40 and heated 3 min; direct target within the Hrd1 complex not defined
T2 construct: gene DERL2; endogenous protein in HeLa cells, heated in NP-40 lysate; component of the Hrd1 complex
T2 sequence (Q9GZP9 1-239): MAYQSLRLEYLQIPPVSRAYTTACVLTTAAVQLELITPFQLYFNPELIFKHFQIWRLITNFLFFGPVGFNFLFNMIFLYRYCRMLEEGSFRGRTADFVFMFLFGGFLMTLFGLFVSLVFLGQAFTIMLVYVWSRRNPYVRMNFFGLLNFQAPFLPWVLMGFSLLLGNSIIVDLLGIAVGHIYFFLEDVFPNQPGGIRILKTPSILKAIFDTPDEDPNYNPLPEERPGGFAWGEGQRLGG

`Cc1ccc(C=C2C(Cl)=C(Cl)C(Cl)=C2Cl)cc1` [CP26, 1-methyl-4-[(2,3,4,5-tetrachlorocyclopenta-2,4-dien-1-ylidene)methyl]benzene] was tested, and the thermal stability increase (OS9) was “CP26 selectively increased the thermal stability of Derlin2 and OS9” and the thermal stability increase (Derlin2) was “CP26 selectively increased the thermal stability of Derlin2 and OS9”.
